Patent US10105357B2, “Indication of antibiotic drugs for preparation of cancer inhibition pharmaceutical composition” (LAUNX BIOMEDICAL CO., LTD., priority 2014, dated 2018)
Read-outs that look alike come from different tables or passages of the source.

What was measured:
[1] = tested on: BCC (basal cell carcinoma); assay: Cell viability analysis, skin cancer BCC; type: cell-based, human; conditions: Homo sapiens, 72 h, read-out: The results of antibiotic drug inhibiting cancer cell lines (cell viability analysis), BCC
cancer cell lines = assay: Cell viability analysis (WST-1) on cancer cell lines; type: cell-based, human; conditions: drug 10 μM, 72 hours, WST-1; Table 3
[2] = tested on: A549 (Lung Adenocarcinoma); assay: Cell viability analysis, lung cancer A549; type: cell-based, human; conditions: Homo sapiens, A549, 72 h
[3] = tested on: AGS (Gastric Adenocarcinoma); assay: Cell viability analysis, gastric cancer AGS; type: cell-based, human; conditions: Homo sapiens, 72 h
[4] = tested on: HepG2 (Hepatocellular Carcinoma); assay: Cell viability analysis, hepatic cancer HepG2; type: cell-based, human; conditions: Homo sapiens, HepG2, 72 h
[5] = tested on: Hep3B (hepatocellular carcinoma); assay: Cell viability analysis, hepatic cancer Hep3B; type: cell-based, human; conditions: Homo sapiens, Hep3B, 72 h, read-out: The results of antibiotic drug inhibiting cancer cell lines (cell viability analysis), Hep3B
AsPC-1 = assay: Cell viability analysis, pancreatic cancer AsPC-1; type: cell-based, human; conditions: Homo sapiens, ASPC1, 72 h, read-out: The results of antibiotic drug inhibiting cancer cell lines (cell viability analysis), AsPC-1
[6] = tested on: HI650 (Lung Adenocarcinoma); assay: Cell viability analysis, lung cancer HI650; type: cell-based, human; conditions: Homo sapiens, NCI-H1650, 72 h
[7] = tested on: TSGH-8301 (Urinary Bladder Carcinoma); assay: Cell viability analysis, bladder cancer TSGH-8301; type: cell-based, human; conditions: Homo sapiens, 72 h
[8] = tested on: HCT116 (p53+) (Colorectal Carcinoma)
[9] = tested on: LoVo (Colorectal Adenocarcinoma); assay: Cell viability analysis, colon cancer LoVo; type: cell-based, human; conditions: Homo sapiens, LoVo, 72 h
TOV-21G = assay: Cell viability analysis, ovarian cancer TOV-21G; type: cell-based, human; conditions: Homo sapiens, TOV21G, 72 h, read-out: The results of antibiotic drug inhibiting cancer cell lines (cell viability analysis), TOV-21G
[10] = tested on: A375 (Amelanotic Melanoma); assay: Cell viability analysis, skin cancer A375; type: cell-based, human; conditions: Homo sapiens, A-375, 72 h
[11] = tested on: PC3 (p53−) (Prostate Adenocarcinoma); assay: Cell viability analysis, prostate cancer PC3; type: cell-based, human; conditions: Homo sapiens, 72 h
T24 = assay: Cell viability analysis, bladder cancer T24; type: cell-based, human; conditions: Homo sapiens, T-24, 72 h, read-out: The results of antibiotic drug inhibiting cancer cell lines (cell viability analysis), T24
NIH: OVCAR-3 = assay: Cell viability analysis, ovarian cancer NIH: OVCAR-3; type: cell-based, human; conditions: Homo sapiens, OVCAR-3, 72 h, read-out: The results of antibiotic drug inhibiting cancer cell lines (cell viability analysis), NIH-OVCAR-3
BxPC-3 = assay: Cell viability analysis, pancreatic cancer BxPC-3; type: cell-based, human; conditions: Homo sapiens, BXPC-3, 72 h, read-out: The results of antibiotic drug inhibiting cancer cell lines (cell viability analysis), BxPC-3
U-2OS = assay: Cell viability analysis, osteosarcoma U-2OS; type: cell-based, human; conditions: Homo sapiens, U2OS, 72 h, read-out: The results of antibiotic drug inhibiting cancer cell lines (cell viability analysis), U2OS
[12] = tested on: SAS (Tongue squamous cell carcinoma); assay: Cell viability analysis, tongue cancer SAS; type: cell-based, human; conditions: Homo sapiens, 72 h, read-out: The results of antibiotic drug inhibiting cancer cell lines (cell viability analysis), SAS
[13] = tested on: HL-60 (Acute Promyelocytic Leukemia); assay: Cell viability analysis, leukemia HL-60; type: cell-based, human; conditions: Homo sapiens, HL-60, 72 h, read-out: cell viability (survival rate), HL-60, drug 10 μM, 72 hours, WST-1, OD450 nm
[14] = tested on: MDA-MB-231 (Mammary Gland, Adenocarcinoma); assay: Cell viability analysis, breast cancer MDA-MB-231; type: cell-based, human; conditions: Homo sapiens, MDA-MB-231, 72 h, read-out: The results of antibiotic drug inhibiting cancer cell lines (cell viability analysis), MDA-MB231
[15] = tested on: MKN-45 (Gastric Adenocarcinoma); assay: Cell viability analysis, gastric cancer MKN-45; type: cell-based, human; conditions: Homo sapiens, MKN-45, 72 h
[16] = tested on: C-33A (Cervical carcinoma); assay: Cell viability analysis, cervical cancer C-33A; type: cell-based, human; conditions: Homo sapiens, C-33-A, 72 h, read-out: The results of antibiotic drug inhibiting cancer cell lines (cell viability analysis), C-33A
[17] = tested on: HeLa (Cervix Adenocarcinoma); assay: Cell viability analysis, cervical cancer HeLa; type: cell-based, human; conditions: Homo sapiens, HeLa, 72 h
[18] = read-out: The results of antibiotic drug inhibiting cancer cell lines (cell viability analysis), A549, A549, repeated experiment
[19] = read-out: cell viability (survival rate), A549, drug 10 μM, 72 hours, WST-1, OD450 nm
[20] = read-out: The results of antibiotic drug inhibiting cancer cell lines (cell viability analysis), AGS, repeated experiment
[21] = read-out: cell viability (survival rate), AGS, drug 10 μM, 72 hours, WST-1, OD450 nm
[22] = read-out: The results of antibiotic drug inhibiting cancer cell lines (cell viability analysis), HepG2, HepG2, repeated experiment
[23] = read-out: cell viability (survival rate), HepG2, drug 10 μM, 72 hours, WST-1, OD450 nm
[24] = read-out: The results of antibiotic drug inhibiting cancer cell lines (cell viability analysis), H1650, H1650, repeated experiment
[25] = read-out: cell viability (survival rate), H1650, drug 10 μM, 72 hours, WST-1, OD450 nm
[26] = read-out: The results of antibiotic drug inhibiting cancer cell lines (cell viability analysis), TSGH-8301, TSGH-8301, repeated experiment
[27] = read-out: cell viability (survival rate), TSGH, drug 10 μM, 72 hours, WST-1, OD450 nm
[28] = read-out: The results of antibiotic drug inhibiting cancer cell lines (cell viability analysis), LoVo, repeated experiment
[29] = read-out: cell viability (survival rate), LoVo, drug 10 μM, 72 hours, WST-1, OD450 nm
[30] = read-out: The results of antibiotic drug inhibiting cancer cell lines (cell viability analysis), A375, A375, repeated experiment
[31] = read-out: cell viability (survival rate), A375, drug 10 μM, 72 hours, WST-1, OD450 nm
[32] = read-out: The results of antibiotic drug inhibiting cancer cell lines (cell viability analysis), PC-3, PC-3, repeated experiment
[33] = read-out: cell viability (survival rate), PC3, drug 10 μM, 72 hours, WST-1, OD450 nm
[34] = read-out: The results of antibiotic drug inhibiting cancer cell lines (cell viability analysis), MKN-45, MKN-45, repeated experiment
[35] = read-out: cell viability (survival rate), MKN-45, drug 10 μM, 72 hours, WST-1, OD450 nm
[36] = read-out: The results of antibiotic drug inhibiting cancer cell lines (cell viability analysis), HeLa, repeated experiment
[37] = read-out: cell viability (survival rate), HeLa, drug 10 μM, 72 hours, WST-1, OD450 nm

| Compound | viability at 10 µM [1] | inhibition effect on different cancer cell lines (cancer cell lines) | viability at 10 µM [2, 18] | viability at 10 µM [2, 19] | viability at 10 µM [3, 20] | viability at 10 µM [3, 21] | viability at 10 µM [4, 22] | viability at 10 µM [4, 23] | viability at 10 µM [5] | viability at 10 µM (AsPC-1) | viability at 10 µM [6, 24] | viability at 10 µM [6, 25] | viability at 10 µM [7, 26] | viability at 10 µM [7, 27] | viability [8] | viability at 10 µM [9, 28] | viability at 10 µM [9, 29] | viability at 10 µM (TOV-21G) | viability at 10 µM [10, 30] | viability at 10 µM [10, 31] | further results |
| --- | --- | --- | --- | --- | --- | --- | --- | --- | --- | --- | --- | --- | --- | --- | --- | --- | --- | --- | --- | --- | --- |
| CC(C)(C)C(=O)OCOP(=O)(COCCn1cnc2c(N)ncnc21)OCOC(=O)C(C)(C)C [Adefovir Dipivoxil (Preveon, Hepsera), Adefovir Dipivoxil] | 38.9% | significant inhibition effect | 76.7% | 47.3% | 78% | 35.1% | 80.1% | 95.5% | 71.5% | 48.7% | 54% | 55.3% | 70% | 47% | 55.4% | 58.1% | 62% | 77.3% | 37.7% | 81.7% | viability at 10 µM [11, 32]: 74.8%; viability at 10 µM [11, 33]: 91.3%; viability at 10 µM (T24): 44.8%; viability at 10 µM (NIH: OVCAR-3): 78.8%; viability at 10 µM (BxPC-3): 56.9%; viability at 10 µM (U-2OS): 68.5%; viability at 10 µM [12]: 40%; viability at 10 µM [13]: 60.4%; viability at 10 µM [14]: 71.9%; viability at 10 µM [15, 34]: 86.6%; viability at 10 µM [15, 35]: 46.1%; viability at 10 µM [16]: 68%; viability at 10 µM [17, 36]: 77.4%; viability at 10 µM [17, 37]: 96.6% |
| CC(NC(C)(C)C)C(=O)c1cccc(Cl)c1 (centres unmarked) [Amfebutamone (Bupropion), Amfebutamone] | 77.5% | significant inhibition effect | 69.1% | 59.2% | 117% | 30% | 92.3% | 85.1% | 82.1% | 84.3% | 96% | 74.3% | 116% | 44.9% | 78.3% | 115% | 51.4% | 97.5% | 88.4% | 88.2% | viability at 10 µM [11, 32]: 87.9%; viability at 10 µM [11, 33]: 62.8%; viability at 10 µM (T24): 99.6%; viability at 10 µM (NIH: OVCAR-3): 109%; viability at 10 µM (BxPC-3): 79.6%; viability at 10 µM (U-2OS): 92.3%; viability at 10 µM [12]: 110%; viability at 10 µM [13]: 118%; viability at 10 µM [14]: 80.3%; viability at 10 µM [15, 34]: 103%; viability at 10 µM [15, 35]: 52.1%; viability at 10 µM [16]: 107%; viability at 10 µM [17, 36]: 84.5%; viability at 10 µM [17, 37]: 53.4% |
